The source of these data is patent US20150045410A1, “METHOD OF REGULATING CFTR EXPRESSION AND PROCESSING” (University of Iowa Research Foundation, priority 2012, published 2015).

Data set [1] relates to CFTR-ΔF508. The data set can be described thus: CFTR-ΔF508 mRNA and protein in primary cultures of CF airway epithelia. The format is cell-based, human. As to the method:
(§1) Airway epithelia from human trachea and primary bronchus removed from organs donated for research were cultured at the air-liquid interface (ALI) (Karp, P. H. et al. An in vitro model of differentiated human airway epithelia. Methods for establishing primary cultures. Methods Mol. Biol. 188, 115-137 (2002)). These studies were approved by the Institutional Review Board of the University of Iowa. Briefly, airway epithelial cells were dissociated from native tissue by pronase enzyme digestion. Permeable membrane inserts (0.6 cm^2 Millipore-PCF, 0.33 cm^2 Costar-Polyester) pre-coated with human placental collagen (IV, Sigma) were seeded with freshly dissociated epithelia. […]
(§2) First-strand cDNA was synthesized using SuperScript® II (Invitrogen), and oligo-dT and random-hexamer primers. […] To quantitate miRNAs, TaqMan® microRNA Assays (Applied Biosystems) were obtained for miR-138, RNU48 (control) and 8 other miRNAs (negative control, miRs-21, -24, -26a, -200c, -146a, -146b, -27a*, -134). […] All experiments were performed in quadruplicate. mRNA and miRNA quantification in cell lines represents 8 independent transfections in 4 separate experiments. mRNA quantification in human primary airway epithelial cultures represent 8 independent transfections in 8 non-CF donors and 4 CF donors. […]

In another data set the test system is CFTR. Briefly: CFTR mRNA and protein in polarized primary cultures of human airway epithelia. The format is cell-based. To be noted: mRNA 24 hrs, protein 72 hrs post-transfection. As to the method:
as §1, §2

Data set [2] relates to CFTR-ΔF508. Briefly: CFTR-mediated Cl^− transport (transepithelial current) in primary CF airway epithelia. The format is cell-based, human. To be noted: multiple donors, oligonucleotide transfection, F&I then GlyH-101. As for the experimental part: FIG. 27. […] Change in It following F&I+PG-01 treatment of primary CF airway epithelial cells (homozygous for ΔF508-CFTR) with indicated reagents. N=1 donor. PG-01 is a potentiator used along with F&I to increase Cl^− transport.
Airway epithelia from human trachea and primary bronchus removed from organs donated for research were cultured at the air-liquid interface (ALI) (Karp, P. H. et al. An in vitro model of differentiated human airway epithelia. Methods for establishing primary cultures. Methods Mol. Biol. 188, 115-137 (2002)). These studies were approved by the Institutional Review Board of the University of Iowa. Briefly, airway epithelial cells were dissociated from native tissue by pronase enzyme digestion. […]
Transepithelial Cl^− current measurements were made in Ussing chambers about 2 weeks post-seeding (Itani, 0. A. et al. Human cystic fibrosis airway epithelia have reduced Cl− conductance but not increased Na+ conductance. Proc. Natl. Acad. Sci. USA 108, 10260-10265 (2011)). […] Transepithelial Cl^− current was measured under short-circuit current conditions. […] After measuring baseline current, the transepithelial current (It) response to sequential apical addition of 100 μM amiloride (Amil), 100 μM 4,4′-diisothiocyanoto-stilbene-2,2′-disulfonic acid (DIDS), 4.8 mM [Cl^−], 10 μM forskolin and 100 μM 3-isobutyl-1-methylxanthine (IBMX), and 100 μM GlyH-101 was measured. […]

For the substance “SIN3A DsiRNA: Dicer-substrate siRNA against SIN3A, sense SEQ ID NO: 6, antisense SEQ ID NO: 7 (sense GCGAUACAUGAAUUCAGAUACUACC; antisense GGUAGUAUCUGAAUUCAUGUAUCGCUC; chemistry not given here)”, the “CFTR-ΔF508 mRNA and protein” value in the data set with CFTR-ΔF508 [1] is given as “increased”. The “CFTR mRNA and protein levels” value with CFTR is “increased”. The “CFTR-mediated Cl^− transport” value in the data set on CFTR-ΔF508 [2] was “restored”.

On to “miR-138 mimic: synthetic modified RNA duplex, sense SEQ ID NO: 4, antisense SEQ ID NO: 5, showing miR-138-like activity”, for which the “CFTR-ΔF508 mRNA and protein” value with CFTR-ΔF508 [1] is reported as “increased”. The “CFTR mRNA and protein levels” value with CFTR was “increased”. Also, in the data set with CFTR-ΔF508 [2], the “CFTR-mediated Cl^− transport” value was “restored”.
